Test results taken from article PMC8466754, “Esterase-Sensitive Prodrugs of a Potent Bisubstrate Inhibitor of Nicotinamide N-Methyltransferase (NNMT) Display Cellular Activity” (Biomolecules, 2021).

Key:
NNMT [1] = target: T1, NNMT (Homo sapiens, UniProt P40261); assay: Cellular MNA in HMEC-1 cells (Figure S1); assay type: cell-based; set-up: concentrations in endothelial HMEC-1 cells after 24-hour incubation; endogenous in cells; host or cells: HMEC-1 endothelial cells; conditions: 10 µM, 24-hour incubation
T1 sequence (P40261 1-264): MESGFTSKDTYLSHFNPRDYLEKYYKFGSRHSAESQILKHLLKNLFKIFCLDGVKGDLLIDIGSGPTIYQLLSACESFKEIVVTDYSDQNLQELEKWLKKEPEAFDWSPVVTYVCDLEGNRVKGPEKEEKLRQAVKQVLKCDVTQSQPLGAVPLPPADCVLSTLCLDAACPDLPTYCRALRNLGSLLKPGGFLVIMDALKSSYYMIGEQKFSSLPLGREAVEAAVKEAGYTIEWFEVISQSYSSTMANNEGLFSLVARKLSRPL
Description: The following are available online at https://www.mdpi.com/article/10.3390/biom11091357/s1, Figure S1: cellular MNA data in HMEc-1 cells treated with 10 µM reference inhibitors or prodrugs; ^1H and ^13C NMR spectra of compounds 3e, 4c–e, 8a, 11b–f, 12b–f, 13a–c, 13e, 14a–f.
Figure S1. 1-methylnicotinamide (MNA) concentrations in endothelial HMEC-1 cells after 24-hour incubation
with 10 µM of reference compounds 5-amino-methylquinolinium (5-MQ), 6-methylamino-nicotinamide (6-
MANA), parent compound GYZ-319 or prodrug compounds 12b-f and 14a-e. […]

[2] = Ester stability assay in buffer (RP-HPLC); assay type: physicochemical; conditions: for percentage of compound peak area present after 16 h of incubation, PBS: PBS buffer pH 7.4, 16 h; for percentage of compound peak area present after 16 h of incubation, PBS / percentage of compound peak area present after 16 h of incubation, Tris: room temperature, 1 mM compound; for hydrolytic stability in buffer (in words): PBS pH 7.4 and Tris pH 8.4, over 16 h; for percentage of compound peak area present after 16 h of incubation, Tris: Tris buffer pH 8.4, 16 h
Description: The prodrugs were evaluated for their stability in both PBS buffer at pH 7.4 and Tris buffer at pH 8.4. The compounds were dissolved in DMSO at a concentration of 40 mM and diluted with the respective buffer to a final concentration of 1 mM. Compounds were tested directly (t0) and subsequently every 2 h over a time period of 16 h by HPLC. Compounds were eluted from a Dr. Maisch ReproSil-Pur C18 column (4.6 × 250 mm, 10 μm particle size, Dr. Maisch, Ammerbuch-Entringen, Germany) with the following solvent system at a flow rate of 0.5 mL/min: solvent A, 0.1% trifluoroacetic acid in water/acetonitrile (95:5); solvent B, 0.1% trifluoroacetic acid in water/acetonitrile (5:95). Gradient elution was as follows: 100:0 (A/B) to 0:100 (A/B) over 8 min, 0:100 (A/B) for 1 min, then reversion back to 100:0 (A/B) over 1 min, 100:0 (A/B) for 2 min. The formation of the parent compound was evaluated and normalized by measuring the peak area at 214 nm and comparing it to the initial timepoint.
All prodrugs prepared were first tested for their inhibitory activity against NNMT using a biochemical enzymatic activity assay. […] Both these buffers and pHs have been used in the different biochemical and cellular assays described in this report. Compounds were dissolved in DMSO at a concentration of 40 mM and diluted with the respective buffer to a final concentration of 1 mM. Compound stability was then assessed by RP-HPLC directly (t0) and subsequently every 2 h over a time period of 16 h. […] Even for the rather labile methyl ester 12b, the TML group in 14b results in a decrease in hydrolysis of the methyl ester.

[3] = test system: HSC-2 human oral cancer cell line; assay: MTT cell viability assay, HSC-2; assay type: cell-based
Description: (§1) HSC-2 human oral cancer cell line, T24 human bladder cancer cell line, and A549 human lung cancer line were cultured in DMEM/F12 medium and supplemented with 10% fetal bovine serum and 50 μg/mL gentamicin at 37 °C in a humidified 5% CO2 incubator. For each compound tested, powder was dissolved in DMSO at 100 mM concentration. This stock solution was then diluted in culture medium to final concentration values ranging between 1 µM and 100 µM. For each sample, DMSO was kept constant at 0.1% final concentration. The day before starting treatment, cells were seeded in 96-well plates, at a density of 2000 cells/well. Cells were allowed to attach overnight and then incubated with compounds at different concentrations, or with DMSO only, for 24, 48, and 72 h. All experiments were performed in triplicate.
(§2) Cell proliferation was determined using a colorimetric assay with 3-(4,5-dimethylthiazol-2-yl)-2,5-diphenyl tetrazolium bromide (MTT). The MTT assay measures the conversion of MTT to insoluble formazan by dehydrogenase enzymes of the intact mitochondria of living cells. Cell proliferation was evaluated by measuring the conversion of the tetrazolium salt MTT to formazan crystals upon treatment with compounds or DMSO only for 24, 48, and 72 h. Briefly, cells were incubated for 2 h at 37 °C with 100 µL fresh culture medium containing 5 µL of MTT reagent (5 mg/mL in PBS). The medium was removed and 200 µL isopropanol were added. The amount of formazan crystals formed correlated directly with the number of viable cells. The reaction product was quantified by measuring the absorbance at 540 nm using a plate reader. Experiments were repeated three times. Results were expressed as a percentage of the control (the control equals 100% and corresponds to the absorbance value of each sample at time zero) and presented as mean values ± standard deviation of three independent experiments performed in triplicate.

[4] = test system: T24 human bladder cancer cell line; assay: MTT cell viability assay, T24; assay type: cell-based
Description: as §1, §2

NNMT [5] = target: T1, NNMT; assay: 1-Methylnicotinamide (MNA) quantification in A549 cells (LC-MS); conditions: A549 lung carcinoma cells; 0.1–100 µM; 24-h treatment (Figure 4)
Description: Human lung adenocarcinoma line (A549, ATCC, Manassas, VA, USA) was cultured according to the provider’s indications and seeded in 6-well format. […] After incubation, effluent samples were taken and frozen (−80 °C) for further MNA measurement. Cells also were collected, centrifuged (2 × 500 G/5 min.), and frozen both for the measurement of intracellular MNA and for BCA protein assay.
The quantification of 1-methylnicotinamide (MNA), nicotinamide (NA), nicotinic acid (NicA), 1-methyl-2-pyridone-5-carboxamide (Met-2Pyr), and 1-methyl-4-pyridone-5-carboxamide (Met-4Pyr) was performed by applying ultra-high pressure liquid chromatography coupled to tandem mass spectrometry (UPLC-MS) according to the methodology previously described with minor modifications [35]. A UPLC-MS system comprised of a UPLC Ultimate 3000 (Dionex, Thermo Scientific, Waltham, MA, USA) connected to a TSQ Quantum Ultra mass spectrometer (Thermo Scientific, Waltham, MA, USA) equipped with a heated electrospray ionization interface (HESI-II Probe, Waltham, MA, USA) was used. Chromatographic separation of analytes was carried out on an Aquasil C18 analytical column (4.6 mm × 150 mm, 5 mm; Thermo Scientific, Waltham, MA, USA) under isocratic elution using acetonitrile with 0.1% of formic acid (A) and 5 mM ammonium formate in water (B) as mobile phases delivered at the flow rate of 0.8 mL/min (A:B, 80:20, v/v). The cell pellet was resuspended in 60 µL of deionized water and 50 µL of suspension was transferred to a fresh test tube. An amount of 50 µL of effluent sample was used for the measurement of extracellular MNA. The internal standard (IS) containing MNA-d3 was added to each sample (5 µL) obtaining the final concentration of 500 ng/mL. After the sample mixing, the proteins were precipitated using 100 μL of acidified acetonitrile (0.1% of formic acid), and samples were mixed (10 min), cooled at 4 °C (15 min), and finally centrifuged (15,000× g, 15 min, 4 °C). A clear supernatant was transferred to a chromatographic vial and directly injected (5 µL) into UPLC-MS system. […] The concentration of MNA was calculated based on the calibration curve plotted for the analyte as the relationship between the peak area ratios of analyte/IS to the nominal concentration of the analyte. The concentration of analytes was normalized to milligram of proteins, which was assessed using a Pierce^TM BCA Protein Assay Kit (Thermo Fisher, Waltham, MA, USA) and a Synergy4 multiplate reader (BioTek, Winooski, VT, USA). […]
Using this assay, the levels of MNA produced by NNMT in an A549 lung carcinoma cell line can be quantified by means of a sensitive LC-MS method.

pig liver esterase (PLE) = assay: Esterase-mediated hydrolysis to the parent compound (RP-HPLC); assay type: in vitro ADME
Description: The conversion of the prodrugs to the parent compound by esterases was evaluated using pig liver esterase (PLE, 18 U/mg, Sigma-Aldrich, St. Louis, MO, USA) in PBS at pH 7.4. Compounds were dissolved in DMSO at 40 mM, diluted to a final concentration of 2 mM with PBS, and added to an equal volume of a 10 mg/mL solution of PLE in PBS (pH 7.4), resulting in final concentrations of 2.5% DMSO, 1 mM compound, and 5 mg/mL PLE. At different time-points 50 µL aliquots were taken, added to 100 µL acetonitrile to precipitate the proteins, and centrifuged for 5 min at 10,000 rpm. The supernatant was subsequently analyzed by HPLC as described in Section 2.2 above.
The next step was to establish whether compounds 12e and 14e are converted to the parent compound in the presence of an esterase.

[6] = test system: A549 human lung cancer line; assay: MTT cell viability assay, A549; assay type: cell-based
Description: as §1, §2

[7] = Aqueous solubility (observation); assay type: physicochemical
human cancer cell lines = test system: human cancer cell lines; set-up: method as in PMID 34424711; conditions: range of human cancer cell lines; highest concentration tested 100 µM; cited from earlier work

Compound | cellular activity (MNA concentration) compared to parent compound (NNMT [1]) | percentage of compound peak area present after 16 h of incubation, PBS [2] [%] | hydrolytic stability in buffer (in words) [2] | percentage of compound peak area present after 16 h of incubation, Tris [2] [%] | effect on cell viability (MTT) ([3]; 100 µM, 24, 48 and 72 h) | effect on cell viability (MTT) ([3]; 1 and 10 µM, 24, 48 and 72 h) | effect on cell viability (MTT) ([4]; 100 µM, 24, 48 and 72 h) | effect on cell viability (MTT) ([4]; 1 and 10 µM, 24, 48 and 72 h) | effect on cellular MNA levels (NNMT [5]) | time to full conversion to the parent compound (pig liver esterase (PLE); 5 mg/mL PLE, PBS pH 7.4, 1 mM compound) [h] | hydrolysis in the absence of PLE (pig liver esterase (PLE); PBS pH 7.4, without PLE) | effect on cell viability (MTT) ([6]; 100 µM, 24, 48 and 72 h) | effect on cell viability (MTT) ([6]; 1 and 10 µM, 24, 48 and 72 h) | aqueous solubility [7] | antiproliferative effects (human cancer cell lines)
CC(=O)Oc1cc(C)cc(C)c1C(C)(C)CC(=O)N[C@@H](CCN(C/C=C/c1ccc(C#N)cc1)C[C@H]1O[C@@H](n2cnc3c(N)ncnc32)[C@H](O)[C@@H]1O)C(=O)O [Compound 14a, (S)-2-(3-(2-acetoxy-4,6-dimethylphenyl)-3-methylbutanamido)-4-((((2R,3S,4R,5R)-5-(6-amino-9H-purin-9-yl)-3,4-dihydroxytetrahydrofuran-2-yl)methyl)((E)-3-(4-cyanophenyl)allyl)amino)butanoic acid] | not to improve the cellular activity of the parent compound | 99.10 | most stable | 93.97 |  |  |  |  |  |  |  |  |  |  | 
CC(=O)Oc1cc(C)cc(C)c1C(C)(C)CC(=O)N[C@@H](CCN(C/C=C/c1ccc(C#N)cc1)C[C@H]1O[C@@H](n2cnc3c(N)ncnc32)[C@H](O)[C@@H]1O)C(=O)OC(C)C [Compound 14e, Isopropyl-(S)-2-(3-(2-acetoxy-4,6-dimethylphenyl)-3-methylbutanamido)-4-((((2R,3S,4R,5R)-5-(6-amino-9H-purin-9-yl)-3,4-dihydroxytetrahydrofuran-2-yl)methyl)((E)-3-(4-cyanophenyl)allyl)amino)butanoate] |  | 91.13 | most stable | 87.69 | time dependent reduction in cell viability | no effects | time dependent reduction in cell viability | no effects | even further enhanced | ≤ 4 | no hydrolysis was observed | time dependent reduction in cell viability | no effects |  | 
CC(=O)Oc1cc(C)cc(C)c1C(C)(C)CC(=O)N[C@@H](CCN(C/C=C/c1ccc(C#N)cc1)C[C@H]1O[C@@H](n2cnc3c(N)ncnc32)[C@H](O)[C@@H]1O)C(=O)OCc1ccccc1 [Compound 14f, Benzyl-(S)-2-(3-(2-acetoxy-4,6-dimethylphenyl)-3-methylbutanamido)-4-((((2R,3S,4R,5R)-5-(6-amino-9H-purin-9-yl)-3,4-dihydroxytetrahydrofuran-2-yl)methyl)((E)-3-(4-cyanophenyl)allyl)amino)butanoate] |  |  |  |  |  |  |  |  |  |  |  |  |  | poor aqueous solubility | 
N#Cc1ccc(/C=C/CN(CC[C@H](N)C(=O)O)C[C@H]2O[C@@H](n3cnc4c(N)ncnc43)[C@H](O)[C@@H]2O)cc1 [GYZ-319] |  |  |  |  |  | no effects |  | no effects | high concentrations of both 6-MANA and GYZ-319 are required to substantially decrease the levels of MNA |  |  |  | no effects |  | only showed significant antiproliferative effects at the highest concentration tested of 100 µM
